From patent US7193044B1, “Compounds and methods for regulating apoptosis, and methods of making and screening for compounds that regulate apoptosis” (Immunogen, Inc., priority 2000, dated 2007)
Entries after “also recorded” stand apart in the source; their conditions may differ. Residues, ends and D or L forms follow the SMILES beside them. *: point of attachment. Cbz = O=C(OCc1ccccc1)*; CH2F = FC*

Key:
[1] = test system: BAD Ser155 phosphorylation in HeLa cells; test: BAD phosphorylation in HeLa cells (western blot band-shift / anti-phospho-Ser155 antibody); format: cell-based, human
Experimental: A mammalian expression vector encoding mutant HA-BAD S155A, derived from the shorter murine BAD of SEQ ID NO:3, was constructed. HA-BAD S155A has an amino acid sequence wherein the serine at a position corresponding to Ser155 is substituted with alanine. A western blot was performed on WCL prepared from cells expressing the shorter murine BAD (SEQ ID NO:3), HA-BAD S112A, HA-BAD S136A, or HA-BAD S155A, and probed with anti-HA antibody.
A western blot analysis, probed with anti-HA antibody, was performed on lysates produced from the Forskolin treated and untreated (control) cells to determine whether Forskolin could induce the phosphorylation BAD or mutant BAD.
HeLa cells transiently expressing HA-BAD, HA-BAD S155A, HA-BAD S112A/S136A, or HA-BAD S112A/S136A/S155A were treated with Forskolin or a buffer control.
The HA-BAD S112A/S136A double mutant was transiently expressed in HeLa cells, and transfected cell cultures were treated with each of the GPCR ligands, individually and as a group. A western blot analysis, probed with anti-HA antibody, was performed on lysates produced from the treated and untreated (negative control) cells. […] Forskolin (FK) and no treatment (−) were positive and negative controls, respectively (FIG. 6(a), […], respectively).
Non-transfected HeLa cells were treated with Forskolin or L-epinephrine, followed by western blot analysis of cell lysates using anti-BAD antibodies.
Transformants were treated with L-epinephrine, then lysed and subjected to anti-HA western blot analysis.
(§1) To further test whether phosphorylation of Ser155 is dependent on the PI 3-kinase/Akt pathway, HeLa cells were transfected with the mutant HA-BAD S155A and pretreated with Wortmannin, an inhibitor of PI 3-kinase. These cells were then stimulated with epidermal growth factor (EGF), lysed and analyzed by western blot analysis.
For immunoprecipitation of all HA-BAD species, 1 μg of the anti-HA antibody was added to the cell lysates, and incubated at 4° C. for one hour. Protein G agarose (Pierce) was then added (50 μl/fraction of 50% slurry) and followed by a one hour incubation at 4° C. Beads were washed with RIPA buffer, boiled in loading buffer (2% SDS, 10% glycerol, 5% β-ME, 60 mM Tris, pH 6.8, 0.002% Bromophenol Blue) and loaded onto polyacrylamide gels. After electrophoresis, proteins were transferred to nitrocellulose membranes, and blots blocked in western wash buffer (40 mM Tris, pH 8.0, 150 mM NaCl, 0.2% NP-40) with 5% BSA for one hour at room temperature. Blots were incubated with primary antibody diluted in western wash buffer with 3% BSA at room temperature for 1–2 hours, washed with western wash buffer and incubated with secondary HRP-coupled antibody diluted in western wash buffer with 1.5% BSA, and washed extensively. Polypeptides were detected with the ECL chemiluminescence according to the manufacturers instructions (Amersham).

[2] = test system: BAD phosphorylation in Rat-1 cells; test: BAD phosphorylation in Rat-1 cells (western blot band-shift / anti-phospho-Ser155 antibody); format: cell-based
Excerpt: In the absence of a phospho-Ser155 antibody, it was difficult to conclude that this band-shift was solely the result of the phosphorylation of Ser155. However, it appeared that this response was at least primarily due to the phosphorylation at this site. This was based on the combined evidence, both in vitro and in cells, as described above (FIGS. 1, 2 and 4–7) and the fact that Ser155 is the only site of BAD homologous to the substrate consensus sequence of PKA.
Whether the BAD Ser155 kinase, PKA, is also activated by growth factors, and if so, whether such activation is PI 3-kinase dependent, was investigated. […] Cell lysates were analyzed via western blot analysis, probed using anti-HA antibody. […] However, the magnitude of phosphorylation was weaker and may be more transient, than the effect of Forskolin (FIG. 9(a)). Of note, Ser155 phosphorylation following IGF-1, EGF, or PDGF stimulation was not detected in HeLa cells (results not shown).
(§2) It has been documented that Akt kinase activity, the serine kinase shown to phosphorylate BAD Ser136, is induced by growth factors and is dependent on PI 3-kinase activation (Datta et al., 1997; del Peso et al., 1997). In related experiments, Rat-1 cells were pretreated with either the PKA inhibitor H89, or the PI 3-kinase inhibitor Wortmannin (available, e.g., from Sigma, St. Louis, Mo.), followed by stimulation with Forskolin (also available from Sigma) or PDGF. […] This indicated the shift was PKA dependent (FIG. 9(b), lower panel, compare lanes 5 and 6). […] It therefore presumably had no effect on PDGF-induced activation of PI 3-kinase.
To examine whether endogenous BAD is phosphorylated on Ser155 in response to growth factors, serum-starved Rat-1 fibroblasts were stimulated with PDGF. Whole cell lysates were prepared and endogenous BAD was immunoprecipitated. Proteins were separated by SDS-PAGE, and Ser155 phosphorylation was analyzed by Western blot using the phospho-S155 antibody and an anti-BAD antibody.

[3] = test system: Akt; test: Akt activation in Rat-1 cells (anti-phospho-S473 Akt western blot); format: cell-based; conditions: pretreatment then PDGF
Experimental: FIG. 9(B) is two western blots. Rat-1 cells transiently expressing HA-BAD S112A/S136A were treated with a buffer control, H89 (PKA inhibitor) or Wortmannin (PI 3-kinase inhibitor), prior to stimulation with Forskolin or platelet-derived growth factor (“PDGF”). Whole cell lysates were then prepared and proteins were separated by SDS-PAGE. Blots were separately probed with an anti-phospho-S473 Akt antibody (the kinase that phosphorylates Ser136) (upper panel) and an anti-BAD antibody (lower panel).
as §2

[4] = test system: Akt; test: Akt activation in HeLa cells (anti-phospho-S473 Akt western blot); format: cell-based, human; conditions: serum-starved HeLa cells, pretreatment then EGF
Excerpt: FIG. 10(B) is a series of western blots. Serum-starved HeLa cells expressing HA-BAD S155A, were pretreated with a buffer control (lanes 1 and 2), AG1478 (“AG”) (lane 3), Wortmannin (“Wm”) (lane 4), or H89 (lane 5). The cell cultures were then stimulated with a buffer control (lane 1) or EGF (lanes 2–5). Whole cell lysates were made from the cultures and the proteins were separated by SDS-PAGE. Blots were probed with either an anti-activated EGF receptor antibody (“activated EGFR”) (panel A), an anti-phospho-S473 Akt antibody (“pS473 Akt”) (panel B), or an anti-phospho-S155 BAD antibody (“pS155 BAD”) (panel D). Reblots were probed with either an anti-Akt antibody (“Akt”) (panel C) or an anti-HA BAD antibody (“HA-BAD”) (panel E).
as §1

[5] = test system: HeLa cells; test: Beta-gal ELISA apoptosis assay in transfected HeLa cells; format: cell-based, human; conditions: transfected cells, data not shown
Experimental: Because BAD Ser155 phosphorylation, like Ser136 phosphorylation, prevents BAD from binding to Bcl-XL (FIG. 1), it was possible that by analogy, Ser155 dephosphorylation promotes cell death. To test this idea, HeLa cells were co-transfected with BAD or various BAD serine mutants and a β-gal reporter plasmid. Twenty-four hours post-transfection, cell viability was analyzed by β-gal ELISA.
To test this idea, HeLa cells were again co-transfected with BAD or various BAD serine mutants and a β-gal reporter plasmid. Forskolin was then added to half of the cultures while the other half was left untreated. Beta-gal ELISAs were performed 24 hours post transfection. […] Thus, phosphorylation of Ser155 rescues cells from BAD-induced apoptosis, while substitution of Ser155 with a nonphosphorylatable residue results in increased cell death and the failure of cells to be protected from induced PKA activity.
Beta-gal ELISA assays were performed using the β-gal ELISA system from Boehringer Mannheim, according to manufacture's instructions. Cells were transfected with BAD (or BAD mutant) and β-gal in a ratio of 5:1. The transfected cells were trypsinized and distributed into 96-well tissue culture plates. […] The β-gal activity was measured by the absorbance of the sample at […]. Data were based on triplicate wells with standard deviations calculated.

[6] = test system: HeLa cells; test: Fluorescence-based beta-galactosidase assay of BAD-induced cell death in transfected HeLa cells; design: species or system human
Experimental: FIG. 12(B) is a graphic representation of the results of a β-galactosidase assay. HeLa cells were co-transfected with the β-galactosidase gene and either HA-BAD (“WT”), HA-BAD S155A (“S155A”), HA-BAD S112A/S136A (“S112A/S136A”) or HA-BAD S112A/S136A/S155A (“AAA”). Transfected cells were then cultured in serum-free medium (SFM) or SFM supplemented with EGF (SFM+EGF) for 12 hours. Cell lysates were prepared and BAD-induced cell death was measured by the loss of β-galactosidase activity in a fluorescence-based assay. Fluorescence was measured at 465 nm. Results shown are the average and standard deviation of triplicate transfections (this experiment was repeated two more times with similar results). Expression levels of HA-tagged BAD and BAD mutants in transfected cell lysates were detected by anti-HA western blot analysis: HA-BAD (“WT”), HA-BAD S155A (“A”), HA-BAD S112A/S136A (“AA”), and HA-BAD S112A/S136A/S155A (“AAA”).
FIG. 12(C) is a graphic representation of the results of a β-galactosidase assay. HeLa cells were co-transfected with the β-galactosidase gene and either an empty vector (“CTL”), wild-type BAD (“WT”), the BAD S155A mutant (“S155A”) or the BAD S155D mutant (“S155D”). Cell lysates were prepared and BAD-induced cell death was measured by the loss of β-galactosidase activity in a fluorescence-based assay. Fluorescence was measured at 465 nm. […]

`O=S(=O)(NCCNC/C=C/c1ccc(Br)cc1)c1cccc2cnccc12` [H89, reference compound] was tested, and the “inhibition of L-epinephrine-induced band-shift of endogenous BAD” value ([1]; HeLa cells) was “band-shift was sensitive to the PKA inhibitor, H89; also recorded: blocked L-epinephrine-induced BAD phosphorylation”, the “basal phosphorylation of endogenous BAD” value ([1]; HeLa cells, treatment for one hour) was “reduced basal phosphorylation of endogenous BAD” and the “inhibition of EGF-induced phosphorylation of BAD on Ser155” value ([1]; serum-starved HeLa cells transfected with HA-BAD S155A (so in the source), pretreatment then EGF, anti-phospho-S155 blot) was “BAD Ser155 phosphorylation was prevented”. The “inhibition of L-epinephrine-induced Ser155 phosphorylation of HA-BAD S112A/S136A” value ([1]; transfected HeLa cells) was “inhibitory effect of H89”, the “inhibition of Forskolin-induced BAD band-shift” value ([2]; Rat-1 cells) was “sensitive to the PKA inhibitor H89” and the “inhibition of PDGF-induced BAD band-shift/phosphorylation” value ([2]; Rat-1 cells, pretreatment then PDGF) was “significantly reduced”. For the same molecule, the “inhibition of PDGF-induced Ser155 phosphorylation of endogenous BAD” value ([2]; serum-starved Rat-1 cells, pretreatment) was “significantly reduced”, the “effect on PDGF-induced Akt activation” value [3] was “no effect on PDGF-induced Akt activation” and the “effect on EGF-induced activation/phosphorylation of endogenous Akt” value [4] was “without affecting the phosphorylation of Akt”.

With `CC(NC(=O)C(NC(=O)OCc1ccccc1)C(C)C)C(=O)NC(CC(=O)O)C(=O)CF` (stereo not drawn) [z-VAD, reference compound] (Cbz-Val-Ala-Asp-CH2F; configuration not given here) the “protection from BAD-induced apoptosis” value [5] was “efficiently protected the cells” and the “reversal of BAD-induced reduction of beta-gal activity” value [6] was “reversed”.

For EGF: epidermal growth factor, the “Ser155 phosphorylation following growth factor stimulation” value ([1]; HeLa cells, results not shown) was “not detected”, the “induction of Ser155 phosphorylation of HA-BAD S112A/S136” value ([1]; serum-starved transfected HeLa cells) was “stimulated the phosphorylation of BAD on Ser155” and the “induction of band-shift of HA-BAD S112A/S136A” value ([2]; transfected Rat-1 fibroblasts) was “induced a band-shift”. The “suppression of pro-apoptotic function of BAD” value ([6]; serum-free medium plus EGF for 12 hours) was “suppressed the pro-apoptotic function of BAD”.
